Results on two compounds are retold here after article PMC9304322, “Targeting retinoic acid receptor alpha-corepressor interaction activates chaperone-mediated autophagy and protects against retinal degeneration” (Nature Communications, 2022).

Values joined by “and” are separate entries in the source; they are usually repeats but may differ in a detail not shown here. Identical values can stand only once.

A short description of series [1]: In vitro solubility by nephelometry. Format: physicochemical. As to conditions: in words. As for the experimental part:
(§1) In vitro solubility in the following conditions A) HBSS/HEPES 10 mM/BSA 0.1% pH 6 B) HBSS/HEPES 10 mM/BSA 0.1% pH 7.4 C) TRIS/BSA 0.1% PBS (pH 7.4 and at indicated doses were measured by Nephelometry using the NEPHELOstar Galaxy apparatus (BMG Lab Technologies). In vitro stability in human, mouse and rat liver microsomes and permeability using a bidirectional permeability assay with CaCo-2 cells (pH 6.5/7.4) assays were performed with standard methodology and analyzed by LC-MS/MS. at SIMM-SERVIER joint Biopharmacy Laboratory. ADME properties for CA39 and CA77 were predicted by QikProp (Schrödinger, LLC, Releases 2016-2020) software.

Series [2] can be described thus: In vitro stability in human liver microsomes. The settings on record: in words. Format: in vitro ADME. The protocol: as §1
In general terms: Liver microsomes are a subcellular fraction often used to study metabolism.

For series [3], the system named is KFERQ-Dendra mice. The series is described as follows: CMA activity in tissues of KFERQ-Dendra mice.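 On % cells: percentage of blood CD4+ T cells with more than 3 CMA puncta per cell.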 The settings on record: for Fig. 3g value, Mean 2: group mean of the test details, n 6; for Fig. 3g value / % cells: single replicate values; for % cells: Fig. 3d; for fluorescent Dendra+ puncta in liver: KFERQ-Dendra mice, i.p. 30 mg/kg bw daily for 3 days; for number of Dendra+ puncta per cell in retina (Fig. 4f), average / number of Dendra+ puncta per cell in retina (Fig. 4f), individual fields: flat-mounted retinas; for number of Dendra+ puncta per MAP2 + cell (Fig. 4b), individual sections: hippocampus (CA1 region), i.p. 30 mg/kg bw daily for three consecutive days. Further details: Fig. 3g value / Fig. 3g value, Mean 2: unit not given here. Format: in vivo, mouse. The protocol: (§2) C57BL/6 J mice wild-type (WT) and homozygous for the Pde6 mutation (rd10 mouse model of retinal degeneration) were obtained from The Jackson Laboratory and experiments were performed at the age indicated in each part of the study. C57BL/6 KFERQ-Dendra mice were generated by back-crossing FVB KFERQ-Dendra mice with wild-type C57BL/6 mice for 8 generations. Both male and female animals were used in this study in equally distribution groups. However, results from both sexes were pooled, because of absence of significant differences in any of the parameters analyzed after statistical analysis with a mixed model of two-way ANOVA sex and treatment as independent variables and the corresponding measure as dependent variable. All animals were housed in a barrier-controlled facility (19–23 °C 30–60% relative humidity; 12 h light/dark cycle) with ad libitum access to standard chow pellets (protein 19 gm%/carbohydrate 67 gm%/fat 4 gm%) and water. For animal administration of CA compounds, a formula containing 30% PEG 400 (Sigma, #8.0745), 65% of 5% glucose solution, 5% Tween 80 (Sigma, #P1754) was used to dissolve them. CA compounds were prepared freshly by adding 5% DMSO and sonicating for 1 h. Treatment of KFERQ-Dendra mice with the CA compounds was done at 4 months of age by i.p. daily injection of 30 mg/kg bw or vehicle for three consecutive days and tissues collected 6 h after the last injection. In the case of rd10 mice, animals were daily injected from P18 to P25 with CA77 (40 mg/kg bw). In the case of intravitreal administration, a single intravitreal injection was applied at P18 with CA77 (40 µM) in DMSO/PBS and the contralateral eye was injected with PBS and DMSO at same concentration. At P26, mice were sacrificed and eyes fixed overnight with 4% PFA (Sigma, #P6148) in PBS at 4 °C for immunofluorescence or retinas dissected and immediately frozen for biochemistry. Distribution of animals in the vehicle or treatment group was done randomly. ICR (CD-1) outbred 3 months old male mice from ENVIGO were used for the pharmacokinetic studies (see pharmacokinetic section for housing and handling details). All animal studies and procedures complied with ethical regulations, were performed in accordance with the European Union guidelines and the ARVO Statement for the Use of Animals in Ophthalmic and Vision Research and were approved by the Institutional Animal Care and Use Committee at the Albert Einstein College of Medicine, the CSIC Bioetica Comite and approved by the Comunidad de Madrid, PROEX232/17.
All mice were perfused with PBS. Livers were post-fixed overnight at 4 °C in picric acid fixation buffer (2% formaldehyde, 0.2% picric acid in PBS, pH7.0) and then washed with 70% ethanol, followed by two washes in PBS. Livers were immersed in 30% sucrose and then embedded in OCT for sectioning in a cryostat (Leica CM3050 S). After airdrying for 30 min, sections were stored at −20 °C until use. Brains were post-fixed for 12 h in 4% paraformaldehyde, cryoprotected in PBS containing 20% sucrose before being frozen by immersion in a cold isopentane bath (−50 °C), and stored immediately at −80 °C until sectioning. Brains were also sectioned in a cryostat at −20 °C in coronal 40 μm-thick free-floating sections. Immunostainings were performed after permeabilization of the sections with 0.3% Triton X-100 in PBS for 30 minutes at RT followed by blocking (10% normal goat serum, 2% Triton X-100 in PBS) and subsequent incubation with the primary and appropriate anti-species secondary antibody. Cell nuclei were stained using Hoechst (Life Technologies, 33342) at 1:5000 for 30 s (in retina) or 10 min (in brain sections) prior to mounting. Images were acquired with a Leica confocal TCS-SP8 (Leica Microsystem) using an HCX Plan Apo CS ×63.0 1.40 NA oil objective and the Leica Application Suite X (LAS X). Puncta was quantified using ImageJ Software (NIH)[38] after thresholding. […]

The subject of series [4] is lamp2a mRNA. Description: lamp2a mRNA in hippocampus of treated KFERQ-Dendra mice. Format: in vivo, mouse. The settings on record: for Fig. 3e value relative to Vehicle: single replicate values, one sample t test; for mRNA levels of lamp2a (Fig. 4d), individual mice / mRNA levels of lamp2a (Fig. 4d), mean: hippocampus, i.p. 30 mg/kg bw daily for three days, vehicle mean = 1.000; for mRNA levels of lamp2a (Fig. 4d), individual mice: 30 mg/kg; for mRNA levels of lamp2a (Fig. 4d), mean: n = 4 mice. The protocol:
as §2
RNA was extracted from individual retinas or tissue sections (brain, liver). Total RNA from retinas was extracted using TRIzol Reagent (Invitrogen, # 15596-018), and reverse transcription was performed using the High-Capacity cDNA Reverse Transcription Kit (Applied Biosystems, # 4374966) according to the manufacturer’s instructions. Quantitative real-time PCR was performed in a Light Cycler 480 Instrument (Roche) with Taqman LightCycler 480 probes Master Mix (Roche, #4887301001) using Taqman assays (Life Technologies). For cells in culture, RNA was extracted using RNeasy Plus Mini Kit (Qiagen, #74034), and reverse transcription was performed using Superscript III (Invitrogen, #18080051). Quantitative RT-PCR analysis were performed using Power SYBR Green PCR Master Mix (Applied Biosystems, #4368708) on a StepOne Plus Real-Time PCR System (Applied Biosystems). Mm01184405_m1 probe (Thermofisher) was used for rhodopsin and the sequence of all the other probes used for qPCR is included in Supplementary Table 2.

Setting [5] is: i.p. 30 mg/kg bw daily for three days.
The mark [6] stands for this setting: i.p. 30 mg/kg bw daily for three days, 30 mg/kg.

`Clc1ccc2c(c1)OCC(c1ccc(-c3ccccc3)cc1)=N2` [CA39]: the solubility result in series [1] was “reasonable”. The “metabolic stability with human liver microsomes” value in series [2] is given as “high to intermediate”. Besides, in series [3], the “Fig. 3g value, Mean 2” value worked out at 20; the “Fig. 3g value” was 16.28 and 30.33 and 23.44 and 14.29 and 16.39 and 19.29; the “% cells” value was 21% and 39% and 30% and 21.8% and 22.6% and 12.2% and 9.5% and 24.2% and 12.8% and 21.2%; the “fluorescent Dendra+ puncta in liver” value was “significant increase in the number of fluorescent Dendra^+ puncta”. For the same compound, in series [3] (setting [5]), the “number of Dendra+ puncta per cell in retina (Fig. 4f), average” value is 1.185 puncta/cell. Further, the “number of Dendra+ puncta per cell in retina (Fig. 4f), individual fields” value in series [3] (setting [6]) is 1.154 puncta/cell and 0.857 puncta/cell and 0.867 puncta/cell and 0.700 puncta/cell and 1.556 puncta/cell and 1.350 puncta/cell and 1.500 puncta/cell and 0.737 puncta/cell and 1.385 puncta/cell and 0.958 puncta/cell and 0.950 puncta/cell and 2.000 puncta/cell and 1.182 puncta/cell and 1.400 puncta/cell. Besides, the “number of Dendra+ puncta per MAP2 + cell (Fig. 4b), individual sections” value in series [3] (30 mg/kg) is 20 and 22 and 18 and 25 and 16 and 15 and 12 and 10. In addition, the “number of Dendra+ puncta in individual TH+ cells (Fig. S8d)” value in series [3] (midbrain substantia nigra, i.p. 30 mg/kg bw daily for three days, 30 mg/kg) was 27 and 32 and 4 and 2 and 55 and 34 and 23 and 3 and 21 and 1 and 48 and 38 and 6 and 39 and 22 and 45 and 12 and 35. Moreover, in series [4], the “Fig. 3e value relative to Vehicle” value is 1.07 and 1.28 and 1.20 and 1.32 and 1.95 and 2.13; the “mRNA levels of lamp2a (Fig. 4d), individual mice” value was 1.581 and 1.814 and 1.628 and 1.163; the “mRNA levels of lamp2a (Fig. 4d), mean” value was found to be 1.547.
Turning to `CC(=O)Nc1ccc(C2=Nc3ccc(Cl)cc3OC2)cc1` [CA77], the solubility result in series [1] is listed as “reasonable”. In addition, the “metabolic stability with human liver microsomes” value in series [2] was “high to intermediate”. In series [3], the “Fig. 3g value, Mean 2” value is reported as 17.33; the “Fig. 3g value” was 10 and 12 and 22 and 23 and 19 and 18; the “% cells” value was 9% and 28% and 12% and 18% and 22% and 17% and 32% and 26%; the “fluorescent Dendra+ puncta in liver” value is on record as “significant increase in the number of fluorescent Dendra^+ puncta”. The “number of Dendra+ puncta per cell in retina (Fig. 4f), average” value in series [3] (setting [5]) is listed as 1.396 puncta/cell. In addition, the “number of Dendra+ puncta per cell in retina (Fig. 4f), individual fields” value in series [3] (setting [6]) was 1.250 puncta/cell and 1.040 puncta/cell and 1.583 puncta/cell and 1.063 puncta/cell and 1.100 puncta/cell and 1.667 puncta/cell and 1.375 puncta/cell and 1.846 puncta/cell and 1.000 puncta/cell and 1.750 puncta/cell and 1.684 puncta/cell. Also, the “number of Dendra+ puncta per MAP2 + cell (Fig. 4b), individual sections” value in series [3] (30 mg/kg) is 22 and 17 and 15 and 26 and 12 and 18 and 9 and 5. Moreover, in series [4], the “Fig. 3e value relative to Vehicle” value is 2.04 and 2.28 and 1.87 and 1.53 and 2.54 and 2.31; the “mRNA levels of lamp2a (Fig. 4d), individual mice” value was 1.395 and 1.349 and 1.27 and 1.907; the “mRNA levels of lamp2a (Fig. 4d), mean” value is recorded as 1.480.
